What was measured:
[1] = system: Magnaporthe grisea (Pyricularia oryzae); test: whole plant or invertebrate; type: in vivo, Magnaporthe grisea (Pyricularia oryzae) on M201 rice plants; settings: for pest or weed control at 200 ppm: Pyricularia oryzae, 144 h, read-out: % Control RB
fungal inoculum = test: organism not typed; type: cell-based; settings: for inhibition at 10 ppm / inhibition at 50 ppm / inhibition at 1 ppm / inhibition at 100 ppm / inhibition at 5 ppm: read-out: % growth inhibition
fungal mycelium = test: organism not typed; type: cell-based; settings: read-out: % growth inhibition

## CCC#CCN1N=C(c2ccc(SC)cc2)CCC1=O [Compound 61]
[1]
  pest or weed control at 200 ppm: 90%
Fungal inoculum
  inhibition at 10 ppm: 95.3%

## O=C1CCC(c2ccc(Cl)cc2)=NN1CC#CCCO [Compound 50]
[1]
  pest or weed control at 200 ppm: 0%
Fungal inoculum
  inhibition at 50 ppm: 100%

## CC#CCN1N=C(c2ccc(Cl)cc2)CC(C)C1=O (centres unmarked) [Compound 27]
[1]
  pest or weed control at 200 ppm: 0%
Fungal inoculum
  inhibition at 50 ppm: 100%

## COC(=O)C#CCN1N=C(c2ccc(Cl)cc2)CCC1=O [Compound 55]
[1]
  pest or weed control at 200 ppm: 0%
Fungal inoculum
  inhibition at 50 ppm: 100%

## O=C1CCC(c2ccc(Cl)cc2)=NN1CC#CI [Compound 60]
[1]
  pest or weed control at 200 ppm: 50%
Fungal inoculum
  inhibition at 10 ppm: 100%

## CC#CCn1nc(-c2ccc(Cl)cc2C)ccc1=O [Compound 116]
[1]
  pest or weed control at 200 ppm: 0%
Fungal inoculum
  inhibition at 50 ppm: 82.5%

## CC(O)C#CCN1N=C(c2ccc(Cl)cc2)CCC1=O (centres unmarked) [Compound 47, 6-(4-chlorophenyl)-2-(4'hydroxy-2'-pentynyl)-4,5-dihydropyridazinone]
[1]
  pest or weed control at 200 ppm: 0%
Fungal inoculum
  inhibition at 50 ppm: 100%

## CCC#CCn1nc(-c2ccc(Cl)c(Cl)c2)ccc1=O [Compound 112]
[1]
  pest or weed control at 200 ppm: 90%
Fungal inoculum
  inhibition at 10 ppm: 100%

## N#CCN1N=C(c2ccc(Cl)cc2)CCC1=O [Compound 35]
[1]
  pest or weed control at 200 ppm: 75%
Fungal inoculum
  inhibition at 50 ppm: 85%

## CCC#CCN1N=C(c2ccc(Cl)c(C)c2)CCC1=O [Compound 62]
[1]
  pest or weed control at 200 ppm: 99%
Fungal inoculum
  inhibition at 1 ppm: 100%

## CC#CCN1N=C(c2ccc(CC)cc2)CCC1=O [Compound 58]
[1]
  pest or weed control at 200 ppm: 0%
Fungal inoculum
  inhibition at 10 ppm: 39.8%

## CC#CCN1N=C(c2ccc(Cl)c([N+](=O)[O-])c2)CCC1=O [Compound 39]
[1]
  pest or weed control at 200 ppm: 0%
Fungal inoculum
  inhibition at 50 ppm: 94.6%

## CC#CCN1N=C(c2ccccc2)CC(c2ccccc2)C1=O (centres unmarked) [Compound 30]
Fungal inoculum
  inhibition at 50 ppm: 41.2%

## O=C1CCC(c2ccc(Cl)cc2)=NN1CC#CCCF [Compound 51, 6-(4-chlorophenyl)-2-(5'-fluoro-2'-pentynyl)-4,5-dihydropyridazinone]
[1]
  pest or weed control at 200 ppm: 100%
Fungal inoculum
  inhibition at 50 ppm: 100%

## CC#CCN1N=C(c2c(OC)ccc3ccc(OC)cc23)CCC1=O [Compound 138]
[1]
  pest or weed control at 200 ppm: 0%
Fungal inoculum
  inhibition at 100 ppm: 64.6%

## CCC#CCN1N=C2c3ccccc3CC2CC1=O (centres unmarked) [Compound 142]
[1]
  pest or weed control at 200 ppm: 50%
Fungal inoculum
  inhibition at 50 ppm: 100%

## CC#CCN1N=C(c2ccc(Br)cc2)CCC1=O [Compound 31]
[1]
  pest or weed control at 200 ppm: 90%
Fungal inoculum
  inhibition at 5 ppm: 92.4%

## CC#CCN1N=C(c2cccc(Cl)c2)CCC1=O [Compound 37, 6-(3-chlorophenyl)-2-(2'-butynyl)-4,5-dihydropyridazinone]
[1]
  pest or weed control at 200 ppm: 90%
Fungal inoculum
  inhibition at 100 ppm: 100%

## CC(F)C#CCN1N=C(c2ccc(Cl)cc2)CCC1=O (centres unmarked) [Compound 53]
[1]
  pest or weed control at 200 ppm: 100%
Fungal inoculum
  inhibition at 50 ppm: 100%

## CC#CC(C)N1N=C(c2ccc(Cl)cc2)CCC1=O (centres unmarked) [Compound 22]
[1]
  pest or weed control at 200 ppm: 75%
Fungal inoculum
  inhibition at 100 ppm: 99.7%

## 5-chloro-1-(2-pentyn-1-yl)-2-quinolinone [Compound 149]
[1]; 200 ppm, protectant
  % Control RB: 100%
Fungal inoculum
  % growth inhibition: 51.5%

## O=C1CCC(c2ccc(Cl)cc2)=NN1CC#Cc1ccc(Cl)cc1 [Compound 68]
Fungal inoculum
  inhibition at 5 ppm: 10.4%

## CC#CCN1N=C(c2ccncc2)CCC1=O [Compound 133]
[1]
  pest or weed control at 200 ppm: 0%
Fungal mycelium
  inhibition at 200 ppm: 67.4%

## CC#CCN1N=C(c2ccc(C(F)(F)F)cc2)CCC1=O [Compound 42]
Fungal inoculum
  inhibition at 10 ppm: 91.7%

## O=CC#CCN1N=C(c2ccc(Cl)cc2)CCC1=O [Compound 88, 6-(4-chlorophenyl)-2-(4-aldehydo-2'-butynyl)-4,5-dihydropyridazinone]
[1]
  pest or weed control at 200 ppm: 0%
Fungal mycelium
  inhibition at 100 ppm: 80%

## CCC#CCN1N=C(c2ccc(Br)cc2)CCC1=O [Compound 91]
[1]
  pest or weed control at 200 ppm: 90%
Fungal mycelium
  inhibition at 1 ppm: 100%

## O=C1CCC(c2ccc(Cl)cc2)=NN1CC=CBr [Compound 69]
Fungal inoculum
  inhibition at 50 ppm: 100%

## CCC#CCN1N=C(c2ccc(Cl)cc2OC)CCC1=O [Compound 99]
[1]
  pest or weed control at 200 ppm: 0%
Fungal mycelium
  inhibition at 1 ppm: 100%

## CCC#CCN1N=C2c3ccc(Cl)cc3CC2CC1=O (centres unmarked) [Compound 143, 7-chloro-2,4,4a,5-tetrahydro-2-(2-pentyn-1-yl)-indeno[1,2-c]-pyridazin-3-one]
[1]
  pest or weed control at 200 ppm: 99%
Fungal mycelium
  inhibition at 1 ppm: 100%

## C#CC#CCN1N=C(c2ccc(Cl)cc2)CCC1=O [Compound 93, 6-(4-chlorophenyl)-2-(2',4'-pentadiynyl)-4,5-dihydropyridazinone]
[1]
  pest or weed control at 200 ppm: 0%
Fungal mycelium
  inhibition at 0.5 ppm: 100%

## O=C(O)C#CCN1N=C(c2ccc(Cl)cc2)CCC1=O [Compound 54, 6-(4-chlorophenyl)-2-(3'-carboxy-2'-propynyl)-4,5-dihydropyridazinone]
[1]
  pest or weed control at 200 ppm: 0%
Fungal mycelium
  inhibition at 200 ppm: 71.4%

## CCC#CCN1N=C(c2ccc(Cl)cc2)C(F)(F)C(F)(F)C1=O [Compound 106]
[1]
  pest or weed control at 200 ppm: 0%
Fungal mycelium
  inhibition at 50 ppm: 81%

## CCC#CCN1N=C(c2cc(Cl)c(C)c(Cl)c2)CCC1=O [Compound 44]
Fungal inoculum
  inhibition at 5 ppm: 87%

## CCC#CCn1nc(-c2cc3ccccc3s2)ccc1=O [Compound 147]
Fungal inoculum
  inhibition at 50 ppm: 98.1%

## CC#CCN1N=C(c2ccc(Cl)c(F)c2)CCC1=O [Compound 83]
[1]
  pest or weed control at 200 ppm: 90%
Fungal mycelium
  inhibition at 0.5 ppm: 81.3%

## CCC#CCN1N=C(c2ccc(Cl)c(F)c2)CCC1=O [Compound 74, 6-(4-chloro-3-fluorophenyl)-2-(2'-pentynyl)-4,5-dihydropyridazinone]
[1]
  pest or weed control at 200 ppm: 75%
Fungal mycelium
  inhibition at 1 ppm: 100%

## CCCCCC#CCN1N=C(c2ccc(Cl)cc2)CCC1=O [Compound 96]
[1]
  pest or weed control at 200 ppm: 0%
Fungal mycelium
  inhibition at 10 ppm: 94.5%

## O=C1CCC(c2ccc(Cl)cc2)=NN1CC#Cc1cccs1 [Compound 67]
Fungal inoculum
  inhibition at 5 ppm: 83.6%

## O=C1CCC(c2ccc(Cl)cc2)=NN1CC#CCC1CCCCC1 [Compound 95]
[1]
  pest or weed control at 200 ppm: 0%
Fungal mycelium
  inhibition at 10 ppm: 22.2%

## CCC#CCN1N=C(c2ccc(OC)cc2)CCC1=O [Compound 81]
[1]
  pest or weed control at 200 ppm: 95%
Fungal mycelium
  inhibition at 2.5 ppm: 95.8%

## CCCCCCCC#CCN1N=C(c2ccc(Cl)cc2)CCC1=O [Compound 85]
[1]
  pest or weed control at 200 ppm: 0%
Fungal mycelium
  inhibition at 100 ppm: 100%

## CCC#CCn1nc(-c2ccc(Cl)cc2)c(F)c(F)c1=O [Compound 122, 6-(4-chlorophenyl)-4,5-difluoro-2-(2'-pentynyl)-pyridazinone]
[1]
  pest or weed control at 200 ppm: 0%
Fungal mycelium
  inhibition at 100 ppm: 84.6%

## CC#CCN1N=C(C=Cc2ccc(Cl)cc2)CCC1=O [Compound 24]
[1]
  pest or weed control at 200 ppm: 0%
Fungal mycelium
  inhibition at 200 ppm: 6.1%

## CCOC(C#CCN1N=C(c2ccc(Cl)cc2)CCC1=O)OCC [Compound 87, 6-(4-chlorophenyl)-2-(4'-aldehydo-2'-butynyl)-4,5-dihydropyridazinone, diethyl acetal]
[1]
  pest or weed control at 200 ppm: 75%
Fungal mycelium
  inhibition at 100 ppm: 100%

## CC#CCN1N=C(c2ccc(Cl)c(C)c2)CCC1=O [Compound 63]
[1]
  pest or weed control at 200 ppm: 0%
Fungal mycelium
  inhibition at 200 ppm: 100%

## C#CCn1nc(-c2ccc(Cl)cc2)ccc1=O [Compound 118]
[1]
  pest or weed control at 200 ppm: 0%
Fungal mycelium
  inhibition at 200 ppm: 100%

## CCC#CCN1N=C(c2cc3ccccc3s2)CCC1=O [Compound 144]
Fungal inoculum
  inhibition at 1 ppm: 100%

From patent US5726162A (priority 1996, dated 1998)
